Measured values taken from patent US20210330611A1, “THERAPY FOR NEUROLOGICAL DISEASES/DISORDERS” (priority 2020, published 2021).
Structures can show the parent of a compound that is named as a salt. Where two headings read alike, the source gives them in different places.

Key:
[1] = tested on: primary rat microglia; assay: Cell toxicity (dead cells, size <150 μm2) in LPS assay
[2] = tested on: fibrin- and LPS-induced microglia activation; assay: cells; type: cell-based, rat
[3] = tested on: LPS-induced microglia activation; assay: Image-based assay of LPS-induced microglia activation (HTS and dose response); type: cell-based, rat; details: for inhibition at 10 µM: Rattus norvegicus, Microglia, read-out: LPS % inhibition
[4] = tested on: fibrin-induced microglia activation; assay: Image-based assay of fibrin-induced microglia activation (HTS and dose response); type: cell-based, rat; details: for inhibition at 10 µM: Rattus norvegicus, Microglia, read-out: Fibrin % inhibition
[5] = tested on: primary rat microglia; assay: Cell toxicity (dead cells, size <150 μm2) in coated fibrin (cFib) assay;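 further: share of dead cells sized under 150 µm2 at 10 µM in fibrin-stimulated microglia HTS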
[6] = primary HTS, 10 μM, LPS assay, dead cells size <150 μm2
[7] = primary HTS, 10 μM, LPS-stimulated primary microglia
[8] = primary HTS, 10 μM, fibrin-stimulated primary microglia
[9] = primary HTS, 10 μM, fibrin assay, dead cells size <150 μm2
[10] = primary microglia HTS, LPS stimulation, decreased size (<150 μm^2) as marker of toxicity
[11] = quadrant by fibrin and LPS inhibition in HTS of 1907 compounds
[12] = primary microglia HTS, LPS stimulation, increased cell size (>800 μm^2) as marker of activation
[13] = primary microglia HTS, fibrin stimulation, increased cell size (>800 μm^2) as marker of activation
[14] = primary microglia HTS, fibrin stimulation, decreased size (<150 μm^2) as marker of toxicity
[15] = primary microglia HTS, 10 μM, LPS assay, cell size <150 μm^2 as marker of toxicity
[16] = HTS of 1907 compounds, quadrant by fibrin and LPS inhibition
[17] = primary microglia HTS, 10 μM, LPS-stimulated, cell size >800 μm^2 as marker of activation
[18] = primary microglia HTS, 10 μM, fibrin-stimulated, cell size >800 μm^2 as marker of activation
[19] = primary microglia HTS, 10 μM, fibrin assay, cell size <150 μm^2 as marker of toxicity
[20] = 48 h, primary microglia HTS, LPS stimulation, increased cell size (>800 μm^2) as marker of activation
[21] = primary microglia HTS, LPS stimulation, toxicity = cell size <150 μm2
[22] = 48 h, primary microglia HTS, LPS stimulation, activation = cell size >800 μm2
[23] = primary microglia HTS, fibrin stimulation, activation = cell size >800 μm2
[24] = primary microglia HTS, fibrin stimulation, toxicity = cell size <150 μm2

Row | Compound | LPS % cell toxicity [1, 6] [%] | Quadrant (FIG. 5b) ([2]; primary HTS, 10 μM) | inhibition at 10 µM [3, 7] [%] | inhibition at 10 µM [4, 8] [%] | Fibrin % cell toxicity [5, 9] [%] | LPS % cell toxicity [1, 10] [%] | Quadrant (FIG. 5b) [2, 11] | Fibrin % cell toxicity [5, 14] [%] | other results
1 | COc1c2ccoc2cc2oc(=O)ccc12 [Bergapten] | 0 | Q4 | 22 | -5 | 1 |  |  |  | 
2 | Colistin Sulfate |  |  |  |  |  | 1 | Q1 | 1 | LPS % inhibition [3, 12]: 58%; Fibrin % inhibition [4, 13]: 19%
3 | Cc1cccc(C)c1NC(=O)C(C)N (stereo not shown) [Tocainide] |  |  |  |  |  |  |  |  | LPS % cell toxicity [1, 15]: 0%; Quadrant (FIG. 5b) [2, 16]: Q4; inhibition at 10 µM [3, 17]: 0%; inhibition at 10 µM [4, 18]: -25%; Fibrin % cell toxicity [5, 19]: 1%
4 | CC(C)C[C@H]1C(=O)N2CCC[C@H]2[C@]2(O)O[C@](NC(=O)[C@@H]3C=C4c5cccc6[nH]c(Br)c(c56)C[C@H]4N(C)C3)(C(C)C)C(=O)N12 [Bromocriptine Mesylate] | 0 | Q4 | 24 | 26 | 1 |  |  |  | 
5 | CC(=O)Oc1cc(C(C)C)c(OCCN(C)C)cc1C [Moxisylyte] |  |  |  |  |  | 0 | Q4 | 0 | inhibition at 10 µM [3, 20]: 3%; inhibition at 10 µM [4, 13]: -22%
6 | COc1ccccc1OCC(O)COC(N)=O (stereo not shown) [Methocarbamol] |  |  |  |  |  | 0 | Q4 | 0 | inhibition at 10 µM [3, 20]: 10%; inhibition at 10 µM [4, 13]: 4%
7 | Nc1nc(O)c2ncn(COC(CO)CO)c2n1 [Ganciclovir] |  |  |  |  |  |  | Q4 |  | LPS % cell toxicity [1, 21]: 0%; inhibition at 10 µM [3, 22]: 13%; inhibition at 10 µM [4, 23]: -2%; Fibrin % cell toxicity [5, 24]: 0%
8 | Cc1ccc(O)cc1 [P-Cresol] |  |  |  |  |  | 0 | Q4 | 0 | LPS % inhibition [3, 12]: 15%; Fibrin % inhibition [4, 13]: −15%
9 | CC(=O)OCC(=O)[C@@]1(O)CC[C@H]2[C@@H]3CCC4=CC(=O)CC[C@]4(C)[C@H]3C(=O)C[C@@]21C [Cortisone Acetate] | 0 | Q4 | 7 | 0 | 1 |  |  |  | 
10 | C[C@@H]1O[C@@H](OC[C@H]2O[C@@H](Oc3c(-c4ccc(OCCO)c(OCCO)c4)oc4cc(OCCO)cc(O)c4c3=O)[C@H](O)[C@@H](O)[C@@H]2O)[C@H](O)[C@H](O)[C@H]1O [Troxerutin] |  |  |  |  |  |  |  |  | LPS % cell toxicity [1, 15]: 0%; Quadrant (FIG. 5b) [2, 16]: Q4; inhibition at 10 µM [3, 17]: 8%; inhibition at 10 µM [4, 18]: -10%; Fibrin % cell toxicity [5, 19]: 0%
11 | NS(=O)(=O)c1cc2c(cc1C(F)(F)F)NCNS2(=O)=O [Hydroflumethiazide] |  |  |  |  |  |  | Q4 |  | LPS % cell toxicity [1, 21]: 0%; inhibition at 10 µM [3, 22]: 11%; inhibition at 10 µM [4, 23]: -9%; Fibrin % cell toxicity [5, 24]: 0%
12 | CC(C)(C)CC(C)(C)c1ccc(O)c(Cc2ccc(Cl)cc2Cl)c1 [Clofoctol] | 0 | Q4 | 2 | -26 | 0 |  |  |  | 
13 | Sucralfate |  |  |  |  |  |  |  |  | LPS % cell toxicity [1, 15]: 0%; Quadrant (FIG. 5b) [2, 16]: Q4; LPS % inhibition [3, 17]: 22%; Fibrin % inhibition [4, 18]: −35%; Fibrin % cell toxicity [5, 19]: 1%
14 | NCc1ccccc1CC(=O)N[C@@H]1C(=O)N2C(C(=O)O)=C(CSc3nnnn3CC(=O)O)CS[C@H]12 [Ceforanide] | 1 | Q4 | 14 | -2 | 1 |  |  |  | 
15 | C=CC1=C(C(=O)O)N2C(=O)[C@@H](NC(=O)/C(=N\O)c3csc(N)n3)[C@H]2SC1 [Cefdinir] | 0 | Q4 | 16 | -9 | 1 |  |  |  | 
16 | O=C(O)c1ccc[n+]([O-])c1 [Oxiniacic Acid] |  |  |  |  |  | 0 | Q4 | 1 | inhibition at 10 µM [3, 20]: 12%; inhibition at 10 µM [4, 13]: -6%
17 | CN(C)CCCN1c2ccccc2Sc2ccccc21 [Promazine] |  |  |  |  |  | 64 | Q1 | 1 | inhibition at 10 µM [3, 20]: 117%; inhibition at 10 µM [4, 13]: 46%
